In patent US9273057B2 (Bristol-Myers Squibb Company, priority 2012, dated 2016) one finds IC50 data, which are given here for 26 compounds.

Counter-ions that a name gives are not always drawn.

The target in this experiment is CK2A1 (CK2α/β) (Homo sapiens, UniProt P68400). Briefly: CK2 kinase assay, CK2A1 (CK2α/β). Type of experiment: biochemical. The conditions noted are these: Table A; read-out: CK2A1 (CK2α/β) (IC50).
Sequence of CK2A1 (CK2α/β) (P68400 whole entry, species assumed): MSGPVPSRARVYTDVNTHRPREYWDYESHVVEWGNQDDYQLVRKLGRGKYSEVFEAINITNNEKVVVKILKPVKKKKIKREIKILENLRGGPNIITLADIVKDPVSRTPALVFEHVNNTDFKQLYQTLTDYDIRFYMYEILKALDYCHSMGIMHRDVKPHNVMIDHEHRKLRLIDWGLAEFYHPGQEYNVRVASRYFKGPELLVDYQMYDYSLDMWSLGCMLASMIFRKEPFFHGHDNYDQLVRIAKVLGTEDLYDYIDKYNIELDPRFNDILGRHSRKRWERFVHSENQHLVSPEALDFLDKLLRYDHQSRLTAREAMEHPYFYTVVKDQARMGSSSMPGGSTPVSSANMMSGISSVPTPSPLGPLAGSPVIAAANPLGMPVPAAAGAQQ
Sequence of CK2A1 (CK2α/β) (P67870 whole entry partner, species assumed): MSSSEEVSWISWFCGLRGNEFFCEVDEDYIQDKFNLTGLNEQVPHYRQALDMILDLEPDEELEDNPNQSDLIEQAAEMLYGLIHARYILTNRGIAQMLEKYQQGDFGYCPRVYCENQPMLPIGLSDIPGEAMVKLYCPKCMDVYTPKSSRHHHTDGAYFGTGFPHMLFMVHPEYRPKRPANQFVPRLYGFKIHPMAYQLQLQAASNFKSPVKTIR
With `CO[C@@H]1CN(c2cc(C#N)cc(Nc3nc(NC4CC4)c4ncc(C#N)n4n3)c2Cl)C[C@@H]1NC(=O)OC1COC1` [Example 291, 3-oxetanyl ((3S,4R)-1-(2-chloro-5-cyano-3-((7-cyano-4-(cyclopropylamino)imidazo[2,1-f][1,2,4]triazin-2-yl)amino)phenyl)-4-methoxy-3-pyrrolidinyl)carbamate], the IC50 worked out at 0.59 nM.

Regarding `N#Cc1cc(Nc2nc(NC3CC3)c3ncc(C#N)n3n2)c(Cl)c(N2CCN3CCOC[C@@H]3C2)c1` [Example 309, (S)-2-((2-chloro-5-cyano-3-(hexahydropyrazino[2,1-c][1,4]oxazin-8(1H)-yl)phenyl)amino)-4-(cyclopropylamino)imidazo[2,1-f][1,2,4]triazine-7-carbonitrile], the IC50 was determined as 1.31 nM.

On to `CCNc1nc(Nc2cc(C#N)cc(N3CC[C@@H](NC(=O)OC)[C@H](OP(=O)(O)O)C3)c2Cl)nn2c(C#N)cnc12` [Example 337, methyl ((3R,4R)-1-(2-chloro-5-cyano-3-((7-cyano-4-(ethylamino)imidazo[2,1-f][1,2,4]triazin-2-yl)amino)phenyl)-3-(phosphonooxy)piperidin-4-yl)carbamate], for which the IC50 worked out at 16 nM.

On to `CC(C)(O)CC(=O)N1CCN(c2cc(C#N)cc(Nc3nc(NC4CC4)c4ncc(C#N)n4n3)c2Cl)CC1` [Example 91], for which the IC50 was determined as 0.49 nM.

For the compound `N#Cc1cc(Nc2nc(NC3CC3)c3ncc(C#N)n3n2)c(Cl)c(N2CCC(C(CO)CO)CC2)c1` [Example 526, 2-((2-chloro-5-cyano-3-(4-(1,3-dihydroxypropan-2-yl)piperidin-1-yl)phenyl)amino)-4-(cyclopropylamino)imidazo[2,1-f][1,2,4]triazine-7-carbonitrile], the IC50 was determined as 0.42 nM.

`COC(=O)NC1CCN(c2cc(C#N)cc(Nc3nc(NC4CC4)c4ncc(C#N)n4n3)c2Cl)C[C@@H]1N(C)CC#N` (stereo in doubt) [Example 764, methyl N-[(3S,4S)-1-(2-chloro-5-cyano-3-{[7-cyano-4-(cyclopropylamino)imidazo [2,1-f][1,2,4]triazin-2-yl]amino}phenyl)-3-[(cyanomethyl)(methyl)amino]piperidin-4-yl]carbamate]: the IC50 was found to be 2 nM.

Consider `N#Cc1cc(Nc2nc(NC3CC3)c3ncc(C#N)n3n2)c(F)c(N2CCN(C3COC3)CC2)c1` [Example 548, 2-((5-cyano-2-fluoro-3-(4-(oxetan-3-yl)piperazin-1-yl)phenyl)amino)-4-(cyclopropylamino)imidazo[2,1-f][1,2,4]triazine-7-carbonitrile], for which the IC50 amounted to 0.8 nM.

`CC(C)(O)CNCC(O)c1cc(C#N)cc(Nc2nc(NC3CC3)c3ncc(C#N)n3n2)c1Cl` (centres unmarked) [Example 691, 2-((2-chloro-5-cyano-3-(1-hydroxy-2-((2-hydroxy-2-methylpropyl)amino)ethyl)phenyl)amino)-4-(cyclopropylamino)imidazo[2,1-f][1,2,4]triazine-7-carbonitrile]: the IC50 is 1.81 nM.

As for `N#Cc1cc(CN2CCN(CCO)CC2)c(Cl)c(Nc2nc(NC3CC3)c3ncc(C#N)n3n2)c1` [Example 465, 2-[(2-chloro-5-cyano-3-{[4-(2-hydroxyethyl)piperazin-1-yl]methyl}phenyl)amino]-4-(cyclopropylamino)imidazo[2,1-f][1,2,4]triazine-7-carbonitrile], the IC50 was 1.66 nM.

For the compound `CCNc1nc(Nc2cc(C#N)cc(N3C[C@@H]4C[C@H]3CN4C)c2Cl)nn2c(C#N)cnc12` [Example 773, 2-((2-chloro-5-cyano-3-((1S,4S)-5-methyl-2,5-diazabicyclo[2.2.1]heptan-2-yl)phenyl)amino)-4-(ethylamino)imidazo[2,1-f][1,2,4]triazine-7-carbonitrile], the IC50 turned out to be 0.64 nM.

Consider `N#Cc1cc(NC(=O)CN2CCOCC2)c(Cl)c(Nc2nc(NC3CC3)c3ncc(C#N)n3n2)c1` [Example 621, N-(2-chloro-5-cyano-3-((7-cyano-4-(cyclopropylamino)imidazo[2,1-f][1,2,4]triazin-2-yl)amino)phenyl)-2-morpholinoacetamide], for which the IC50 was determined as 1.62 nM.

Regarding `CCNc1nc(Nc2cc(C#N)cc(N3CC[C@@H](NC(=O)OC)[C@H](OC(=O)[C@@H]4CCCN4)C3)c2Cl)nn2c(C#N)cnc12` [Example 813, (S)-(3R,4R)-1-(2-chloro-5-cyano-3-((7-cyano-4-(ethylamino)imidazo[2,1-f][1,2,4]triazin-2-yl)amino)phenyl)-4-((methoxycarbonyl)amino)piperidin-3-yl pyrrolidine-2-carboxylate hydrochloride], the IC50 worked out at 4.48 nM.

In the case of `CC(=O)NCC1(N2CCN(c3cc(C#N)cc(Nc4nc(NC5CC5)c5ncc(C#N)n5n4)c3Cl)CC2)COC1` [Example 540, N-((3-(4-(2-chloro-5-cyano-3-((7-cyano-4-(cyclopropylamino)imidazo[2,1-f][1,2,4]triazin-2-yl)amino)phenyl)piperazin-1-yl)oxetan-3-yl)methyl)acetamide], the IC50 was determined as 6.02 nM.

For `N#Cc1cc(CN2CCN(C3COC3)CC2)c(Cl)c(Nc2nc(NC3CC3)c3ncc(C#N)n3n2)c1` [Example 403, 2-((2-chloro-5-cyano-3-((4-(oxetan-3-yl)piperazin-1-yl)methyl)phenyl)amino)-4-(cyclopropylamino)imidazo[2,1-f][1,2,4]triazine-7-carbonitrile HCl salt], the IC50 amounted to 0.69 nM.

For the compound `CCN1CC2(CCN(c3cc(C#N)cc(Nc4nc(NC5CC5)c5ncc(C#N)n5n4)c3Cl)CC2)C1` [Example 801, 2-((2-chloro-5-cyano-3-(2-ethyl-2,7-diazaspiro[3.5]nonan-7-yl)phenyl)amino)-4-(cyclopropylamino)imidazo[2,1-f][1,2,4]triazine-7-carbonitrile], the IC50 stood at 2.16 nM.

For the compound `N#Cc1cc(Nc2nc(NC3CC3)c3ncc(C#N)n3n2)c(Cl)c(N2CCN3C[C@@H](F)C[C@H]3C2)c1` (racemic) [Example 437, (+/−)-2-((2-chloro-5-cyano-3-((7R,8aR)-7-fluorohexahydropyrrolo[1,2-a]pyrazin-2(1H)-yl)phenyl)amino)-4-(cyclopropylamino)imidazo[2,1-f][1,2,4]triazine-7-carbonitrile], the IC50 amounted to 0.83 nM.

On to `CCNc1nc(Nc2cc(C#N)cc(N3CC[C@@H](NC(=O)OC)C(N(C)C[C@H](O)CO)C3)c2Cl)nn2c(C#N)cnc12` (stereo partly drawn) [Example 772, methyl N-[(4R)-1-(2-chloro-5-cyano-3-{[7-cyano-4-(ethylamino)imidazo[2,1-f][1,2,4]triazin-2-yl]amino}phenyl)-3-{[(2S)-2,3-dihydroxypropyl](methyl)amino}piperidin-4-yl]carbamate], for which the IC50 amounted to 14.1 nM.

As for `N#Cc1cc(Nc2nc(NC3CC3)c3ncc(C#N)n3n2)c(Cl)c([C@H]2CCC[C@H](NC[C@H]3CCCO3)C2)c1` [Example 728, 2-({2-chloro-5-cyano-3-[(1S,3S)-3-{[(2R)-oxolan-2-ylmethyl]amino}cyclohexyl]phenyl}amino)-4-(cyclopropylamino)imidazo [2,1-f][1,2,4]triazine-7-carbonitrile], the IC50 came out at 1.38 nM.

For the compound `CCNc1nc(Nc2cc(C#N)cc(N3CC[C@@H]4[C@@H](C3)OC(=O)N4C3COC3)c2Cl)nn2c(C#N)cnc12` [Example 839, 2-((2-chloro-5-cyano-3-((3aR,7aR)-1-(oxetan-3-yl)-2-oxohexahydrooxazolo[5,4-c]pyridin-5(2H)-yl)phenyl)amino)-4-(ethylamino)imidazo[2,1-f][1,2,4]triazine-7-carbonitrile], the IC50 amounted to 1.19 nM.

As to `N#Cc1cc(Nc2nc(NC3CC3)c3ncc(C#N)n3n2)c(Cl)c(C2CCN(C3CN(CC4CC4)C3)CC2)c1` [Example 323, 2-((2-chloro-5-cyano-3-(1-(1-(cyclopropylmethyl)-3-azetidinyl)-4-piperidinyl)phenyl)amino)-4-(cyclopropylamino)imidazo [2,1-f][1,2,4]triazine-7-carbonitrile], the IC50 was 0.59 nM.

As for `N#Cc1cc(Nc2nc(NC3CC3)c3ncc(C#N)n3n2)c(OC[C@@H]2COCCN2)cc1F` [Example 424, (S)-2-((5-cyano-4-fluoro-2-(morpholin-3-ylmethoxy)phenyl)amino)-4-(cyclopropylamino)imidazo[2,1-f][1,2,4]triazine-7-carbonitrile], the IC50 came out at 5.12 nM.

With `N#Cc1cc(Nc2nc(NC3CC3)c3ncc(C#N)n3n2)c(Cl)c(N2CCC(N[C@@H]3CC[C@H](O)C3)CC2)c1` (racemic) [Example 121, (+/−) 2-((2-chloro-5-cyano-3-(4-(((1R,3S)-3-hydroxycyclopentyl)amino)-1-piperidinyl)phenyl)amino)-4-(cyclopropylamino)imidazo [2,1-f][1,2,4]triazine-7-carbonitrile], the IC50 is 1.05 nM.

On to `COC(=O)N[C@@H]1CN(c2cc(C#N)cc(Nc3nc(NC4CC4)c4ncc(C#N)n4n3)c2Cl)C[C@@H]1C` (racemic) [Example 11, (+/−) methyl ((3S,4S)-1-(2-chloro-5-cyano-3-((7-cyano-4-(cyclopropylamino)imidazo [2,1-f][1,2,4]triazin-2-yl)amino)phenyl)-4-methyl-3-pyrrolidinyl)carbamate], for which the IC50 was found to be 0.68 nM.

In the case of `C[C@H](O)C(=O)N1CC2(CCN(c3cc(C#N)cc(Nc4nc(NC5CC5)c5ncc(C#N)n5n4)c3Cl)CC2)C1` [Example 795, (S)-2-((2-chloro-5-cyano-3-(2-(2-hydroxypropanoyl)-2,7-diazaspiro[3.5]nonan-7-yl)phenyl)amino)-4-(cyclopropylamino)imidazo[2,1-f][1,2,4]triazine-7-carbonitrile], the IC50 is 1.12 nM.

As to `C[C@@H]1CN(c2cc(C#N)cc(Nc3nc(NC4CC4)c4ncc(C#N)n4n3)c2Cl)C[C@@H]1O` (racemic) [Example 19, (+/−) 2-((2-chloro-5-cyano-3-((3R,4R)-3-hydroxy-4-methyl-1-pyrrolidinyl)phenyl)amino)-4-(cyclopropylamino)imidazo [2,1-f][1,2,4]triazine-7-carbonitrile], the IC50 came out at 1.27 nM.

For the compound `CN1CCN(C(=O)N[C@@H]2CCN(c3cc(C#N)cc(Nc4nc(NC5CC5)c5ncc(C#N)n5n4)c3Cl)C[C@H]2O)CC1` (racemic) [Example 182, (+/−)-N-((3R,4R)-1-(2-chloro-5-cyano-3-((7-cyano-4-(cyclopropylamino)imidazo[2,1-f][1,2,4]triazin-2-yl)amino)phenyl)-3-hydroxypiperidin-4-yl)-4-methylpiperazine-1-carboxamide], the IC50 is 0.66 nM.
